In patent US20250145592A1 (NICO Therapeutics, Inc., priority 2022, published 2025):
Where two headings read alike, the source gives them in different places.

System: IL-1β secretion in THP-1 cells (NLRP3)
Assay: IL-1β secretion assay in PMA-differentiated THP-1 cells stimulated with LPS and nigericin (ELISA readout)
Type: cell-based
Conditions: Homo sapiens, IL-1β ELISA
Experimental: Compounds as provided herein were tested in the following assay. Cell culture medium employed contained RPMI 1640 medium (89%), FBS (10%), Pen/Strep (1%), and 2-mercaptoethanol (0.05 mM). Freezing medium was made up of 90% FBS and 10% DMSO. THP-1 cells were removed from the liquid nitrogen and placed into a 37° C. water bath to thaw, until signs of ice dissipated. The cells were then added to 9 mL of warm cell culture medium and centrifuged for 5 minutes at 1000 rpm. The supernatant was discarded, and the cells were resuspended in new cell culture medium. THP-1 cells were then split and cultured in the cell culture medium, being passaged every 2-3 days with the cell density will be maintained between 5×10^5 and 1.5×10^6 viable cells/mL.
To freeze, cells were resuspended with fresh freezing medium, adjusting the cell density to 5×10^6 cells/mL. The cell suspension was partitioned into 1 mL aliquots per vial, and the vials were transferred to a −80° C. freezer. After one day at −80° C., the cell vials were transferred to liquid nitrogen freezer for storage.
PMA was dissolved in DMSO to make a stock solution at 5 mg/ml and stored in 10 μl aliquots at −20° C. for single use. PMA is added to normal growth medium. LPS was diluted with 1 mL of water solution to provide a 1 mg/mL stock solution and stored in 15 μl aliquots at −20° C. for single use. Nigericin is diluted in ice cold 100% ethanol to 5 mg/ml (6.7 mM) and stored in 75 μL aliquots at −20° C. for single use. Serum-free media contains RPMI 1640 medium (99%), Pen/Strep (1%), and 2-mercaptoethanol (0.05 mM). The two control conditions used to qualify and normalize test compound dose-response curves were as follows: High Control=25 ng/mL LPS, […], 0.5% DMSO, Low Control=25 ng/mL, LPS, 0.5% DMSO.
THP-1 cells were diluted to provide a suspension at a concentration of 1.0×10^6 cells/mL with the total volume of suspension required to enable the desired number of assay plates. The growth media was supplemented with PMA (5 ng/mL final concentration) and the cells were incubated at 37° C. under a humidified atmosphere of 5% CO2 for 40 h.
All media was carefully aspirated from each culture flask. The cells were washed carefully with 1×DPBS. The cells were then briefly digested with trypsin LE for 5 minutes at 23° C. and immediately resuspended in cell growth media. After resuspension, the cells were centrifuged at 1000 rpm for 3 minutes and the supernatant was discarded. The cells were resuspended in DPBS and once again centrifuged at 1000 rpm for 5 minutes. The supernatant was discarded and the cell pellet was resuspended in serum-free media supplemented with LPS (25 ng/mL final concentration) to enable the distribution of 30K THP-1 cells within 45 μL of media into each well of 384-well PDL-coated plates. The 384-well plates were then incubated at 37° C. under a humidified atmosphere of 5% CO2 for 2 h. Following this period, test compounds were dispensed by Tecan across the desired concentration range with all wells normalized to a final 0.5% DMSO concentration. The plates were then then incubated at 37° C. under a humidified atmosphere of 5% CO2 for 1 h. Following this period, 5 μL of the 5 mg/mL nigericin stock solution was added to each of the appropriate wells and plates were centrifuged at 1000 rpm for 30 seconds. The plates were the immediately reintroduced to the incubator at 37° C. under a humidified atmosphere of 5% CO2 for 2 h. After this time, 35 μL/well of supernatant was collected and transferred into v-bottom plate and centrifuged at 1000 rpm for 1 minute. These supernatant aliquots were analyzed using an IL-Iβ detection kit as described below. If needed, the test samples could be snap frozen and stored at −80° C. until analyzed.
To prepare each ELISA plate, capture antibody (mAb Mt175) was diluted with PBS to a final concentration of […] and then 20 µL of this solution was added to each well of the ELISA plate.
Each plate was allowed to incubate overnight at 4° C. […]

[1] = THP-1, Table 3, LPS 25 ng/mL + nigericin, read-out: Activity (IC50 class)
[2] = THP-1, Table 4, LPS 25 ng/mL + nigericin, read-out: Activity (IC50)

SMILES | IC50 [1] [nM] | IC50 [2] [nM]
COC1(C(F)(F)F)CC(Oc2nn(CC(=O)Nc3ncc(F)cn3)c(=O)c3ccc(Br)cc23)C1 (stereo not drawn) [Example 43] | < 1000 | 447
O=C(Cn1nc(O[C@H]2C[C@@H](F)C2)c2cc(Br)ccc2c1=O)Nc1ncc(F)cn1 [Example 44, 2-[6-bromo-4-(cis-3-fluorocyclobutyl)oxy-1-oxophthalazin-2-yl]-N-(5-fluoropyrimidin-2-yl)acetamide] | < 1000 | 492
O=C(Cn1nc(O[C@H]2C[C@H](F)C2)c2cc(Br)ccc2c1=O)Nc1ncc(F)cn1 [Example 45, 2-[6-bromo-4-(trans-3-fluorocyclobutyl)oxy-1-oxophthalazin-2-yl]-N-(5-fluoropyrimidin-2-yl)acetamide] | < 1000 | 912
O=C(Cn1nc(OC2CC3CC[C@@H]2C3)c2cc(Br)ccc2c1=O)Nc1ncc(F)cn1 (stereo partly drawn) [Example 46, 2-[4-[[(1r,2r,4s)-2-bicyclo[2.2.1]heptanyl]oxy]-6-bromo-1-oxophthalazin-2-y1]-N-(5-fluoropyrimidin-2-yl)acetamide] | < 1000 | 862
O=C(Cn1nc(OCCF)c2cc(Br)ccc2c1=O)Nc1ncc(F)cn1 [Example 47, 2-[6-bromo-4-(2-fluoroethoxy)-1-oxophthalazin-2-yl]-N-(5-fluoropyrimidin-2-yl)acetamide] | 1000 to 10000 | 1400
O=C(Cn1nc(OCC(F)F)c2cc(Br)ccc2c1=O)Nc1ncc(F)cn1 [Example 48, 2-[6-bromo-4-(2,2-difluoroethoxy)-1-oxophthalazin-2-yl]-N-(5-fluoropyrimidin-2-yl)acetamide] | < 1000 | 568
O=C(Cn1nc(OC2CC(F)(F)C2)c2cc(Br)ccc2c1=O)Nc1ncc(F)cn1 [Example 49, 2-[6-bromo-4-(3,3-difluorocyclobutyl)oxy-1-oxophthalazin-2-yl]-N-(5-fluoropyrimidin-2-yl)acetamide] | 1000 to 10000 | 1510
O=C(Cn1nc(OCC2CC2)c2cc(Br)ccc2c1=O)Nc1ncc(F)cn1 [Example 50, 2-[6-bromo-4-(cyclopropylmethoxy)-1-oxophthalazin-2-yl]-N-(5-fluoropyrimidin-2-yl)acetamide] | < 1000 | 343
O=C(Cn1nc(OC2C[C@@H]2F)c2cc(Br)ccc2c1=O)Nc1ncc(F)cn1 (stereo partly drawn) [Example 53, 2-[6-bromo-4-[2-trans-fluorocyclopropyl]oxy-1-oxophthalazin-2-yl]-N-(5-fluoropyrimidin-2-yl)acetamide] | – | 389
O=C(Cn1nc(OC2C[C@H]2F)c2cc(Br)ccc2c1=O)Nc1ncc(F)cn1 (stereo partly drawn) [Example 54, 2-[6-bromo-4-[2-cis-fluorocyclopropyl]oxy-1-oxophthalazin-2-yl]-N-(5-fluoropyrimidin-2-yl)acetamide] | – | 490
